Data on twelve compounds can be found in patent US20240335431A1, “1-H-PYRROLO[2,3-c]PYRIDINE COMPOUNDS” (Acerta Pharma B.V., priority 2023, published 2024).

Assay [1] has as its system DFAL-49600. As to the kind of experiment: MLLr AML patient derived disseminated xenograft model DFAL-49600. As to conditions: 150 mg/kg oral twice daily, 21 days. The format is in vivo, female NSG mice. How it is done: Viably frozen A. CBAM-68552, B. CBAM-44728, and C. DFAL-49600 single cell suspensions from spleens of donor mice were prepared into frozen stock. Flow cytometry antibodies for Ter119 (Miltenyi 130-112-914), mouse CD45 (Miltenyi 130-110-665), and human CD45 (Miltenyi 130-110-634) and Fixable Live Dead Stain (ThermoFisher; #L34963) for disease evaluation via flow cytometry on MACSQuant (Miltenyi). Compound 56-2 was formulated in water at pH 4.5-5 using 1M MSA as pH-adjusting agent at concentrations up to 100 mg/mL to achieve a uniform suspension and dosed twice daily by oral gavage 10 mL/kg.
A. CBAM-68552, B. CBAM-44728, and C. DFAL-49600 cells were thawed and 1 million cells implanted via the tail vein in to female NSG mice. Mice were randomized into groups of 5 when human CD45 levels reached average of A. CBAM-68552 6.5%, B. CBAM-44728 4.8%, and C. DFAL-49600 12.4% in the bone marrow of satellite animals. Mice were treated for 21 days with vehicle (water at pH 4.5-5 using 1 M MSA) or Compound 56-2 at 150 mg/kg. Compound 56-2 was dosed orally twice daily 8/16 hours apart and mice were monitored for overall survival. FIGS. 3-A, 3-B, and 3-C further illustrate the effect of treatment with Compound 56-2 in human MLLr AML Patient Derived Disseminated Xenograft Models A. CBAM-68552, B. CBAM-44728, and C. DFAL-49600, respectively.
In general terms: Xenograft models place foreign cells or tissue in a host animal.

The target of assay [2] is hERG ion channel (Homo sapiens (Human), UniProt Q12809). As to the kind of experiment: hERG assay 3, QPatchII 48X, 30 degrees Celsius. To be noted: CHO cells. Format: cell-based. As to the method: Experiments were performed on the QPatchII 48X(Sophion Biosciences) high throughput patch clamp platform at 30 degrees Celsius using single holes QChips (Sophion Bioscience). Chinese hamster ovary K1 (CHO) cell lines over-expressing the hERG ion channel were used from live culture. All compounds were dispensed as solid stocks in glass vials. Compounds were solubilised to 10 or 50 mM DMSO stocks on the day of experiments, after which dilutions in DMSO we undertaken. Stamps of DMSO stocks were made into an MTP plate using glass vials, after which extracellular solution was backfilled creating testing concentrations with a highest concentration of 40 and 200 μM, respectively. The internal patch clamp solution was KF 60 mM, KCl 70 mM, HEPES 10 mM, EGTA 10 mM, and 5 mM Mg ATP (pH7.2).
Sequence of hERG ion channel (Q12809 whole entry): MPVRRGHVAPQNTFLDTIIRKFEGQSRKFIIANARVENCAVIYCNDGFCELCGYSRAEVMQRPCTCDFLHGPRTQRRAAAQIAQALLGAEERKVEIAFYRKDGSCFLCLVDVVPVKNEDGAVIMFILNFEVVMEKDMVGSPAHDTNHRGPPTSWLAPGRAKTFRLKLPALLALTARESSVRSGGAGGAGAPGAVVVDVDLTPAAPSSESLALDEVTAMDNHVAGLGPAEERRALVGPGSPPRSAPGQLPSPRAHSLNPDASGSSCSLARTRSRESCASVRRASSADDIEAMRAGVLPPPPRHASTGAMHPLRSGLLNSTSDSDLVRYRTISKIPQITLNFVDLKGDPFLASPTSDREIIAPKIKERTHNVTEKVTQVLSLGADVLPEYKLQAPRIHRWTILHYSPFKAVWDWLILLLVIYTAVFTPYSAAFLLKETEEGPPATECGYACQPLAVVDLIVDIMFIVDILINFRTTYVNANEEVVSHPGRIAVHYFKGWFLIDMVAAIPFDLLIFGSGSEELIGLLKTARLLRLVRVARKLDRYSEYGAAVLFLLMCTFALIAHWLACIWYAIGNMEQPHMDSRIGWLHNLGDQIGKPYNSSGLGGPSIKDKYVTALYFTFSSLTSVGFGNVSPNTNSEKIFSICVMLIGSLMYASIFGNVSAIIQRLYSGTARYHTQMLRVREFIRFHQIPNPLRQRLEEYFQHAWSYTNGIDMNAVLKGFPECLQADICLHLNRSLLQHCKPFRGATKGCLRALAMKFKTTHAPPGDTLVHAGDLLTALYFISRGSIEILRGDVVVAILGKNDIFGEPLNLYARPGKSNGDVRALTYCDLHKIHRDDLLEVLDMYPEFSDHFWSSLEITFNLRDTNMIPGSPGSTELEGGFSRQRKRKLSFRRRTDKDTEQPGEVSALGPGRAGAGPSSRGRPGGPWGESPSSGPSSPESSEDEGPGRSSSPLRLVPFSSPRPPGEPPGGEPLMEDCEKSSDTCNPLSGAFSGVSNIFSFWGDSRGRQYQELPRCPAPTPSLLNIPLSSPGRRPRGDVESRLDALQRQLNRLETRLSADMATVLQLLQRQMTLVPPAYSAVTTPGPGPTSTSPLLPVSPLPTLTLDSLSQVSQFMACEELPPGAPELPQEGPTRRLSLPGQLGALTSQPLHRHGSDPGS
For orientation: The hERG channel carries a current that helps repolarise heart muscle cells.

For assay [3], the target named is Menin protein (Homo sapiens, UniProt O00255, DEL460-519). As to the kind of experiment: Menin/MLL fluorescence polarization (FP) assay. The format is binding. As to conditions: Menin 2 nM, cRho110-Ahx-MBM1/MBM2 peptide 1 nM. How it is done:
Compounds were tested in a biochemical binding assay using Menin protein at 2 nM (N6his-tev-Menin_4i80, PB-20-1459) and the substrate cRho110-Ahx-MBM1/MBM2 peptide (UbiQ, UbiQ-Q20201030; cRh110-Ahx-[…]-QRVPALLLPPG-NH2) at 1 nM.
384 Low volume black plates (Corning #4514) were used. 5 μL/well compound or 3% DMSO was added at 10-fold serial dilutions in DMSO from 10 μM. 5 μL/well cRho110-Ahx-MBM1/MBM2 peptide or binding buffer (50 mM Tris pH 7.5, 50 mM NaCl, 1 mM TCEP, 0.01% BGG, 0.01% Brij-35) was added to all wells. 5 μL/well Menin protein or binding buffer (50 mM Tris pH 7.5, 50 mM NaCl, 1 mM TCEP, 0.01% BGG, 0.01% Brij-35) was added to all wells. Plates were read on an EnVision plate reader (Perkin Elmer) with excitation at 480 nm and emission at 535 nm P+S, and measured every 5 minutes for 180 minutes.
Data were analyzed in Genedata Screener®. IC50 values were determined by plotting % inhibition versus log compound concentration and using a one site dose response model. Raw data signals were normalized using 1% DMSO no Menin as 100% inhibitor control and 1% DMSO with Menin and no inhibitor as 0% inhibitor control.
For orientation: Polarisation of emitted light reports the rotation of a fluorescent probe.

Assay [4] relates to MV-4-11 AML cells. As to the kind of experiment: MLLr AML xenograft model MV-4-11. Format: in vivo, female CB17 SCID mice. To be noted: for % REGRESSION AT DOSING END / % TUMOR REGROWTH AT STUDY END: 14 days. How it is done: MV-4-11 cells were grown in RPM1 1640 (Gibco, #21875091) supplemented with 10% FBS (Gibco; #10091-148) and 1% Pen/Strep (Gibco; #15140-122). Cells were harvested and resuspended in PBS/Matrigel (Corning; #CLS354234) (50/50). The compound of Example 56-2 was formulated in water at pH 4.5-5 using 1 M MSA as pH-adjusting agent at the concentrations up to 100 mg/mL to achieve a uniform suspension and dosed twice daily by oral gavage 10 mL/kg. For convenience, the compound of Example 56-2 is referred to as “Compound 56-2” in this Example and the other Examples.
10 million human MV-4-11 AML cells were implanted subcutaneously in the right flank of female CB17 SCID mice. Mice were randomized into groups of 5 when average tumor volume reached approximately 160 mm^3. Mice were treated for 14 days with vehicle (water at pH 4.5-5 using 1M MSA) or Compound 56-2 at 30, 100, or 200 mg/kg. Compound 56-2 was dosed orally twice daily 8/16 hours apart. The group administered Compound 56-2 at 30, 100, 200 mg/kg were monitored for regrowth for 6 weeks. […] FIG. 1 illustrates the effect of treatment with Compound 56-2 on tumor volume in this MLLr MV-4-11 human AML cancer xenograft mouse model.

Sequence of Menin protein (O00255 with tags, fused parts or gaps DEL460-519): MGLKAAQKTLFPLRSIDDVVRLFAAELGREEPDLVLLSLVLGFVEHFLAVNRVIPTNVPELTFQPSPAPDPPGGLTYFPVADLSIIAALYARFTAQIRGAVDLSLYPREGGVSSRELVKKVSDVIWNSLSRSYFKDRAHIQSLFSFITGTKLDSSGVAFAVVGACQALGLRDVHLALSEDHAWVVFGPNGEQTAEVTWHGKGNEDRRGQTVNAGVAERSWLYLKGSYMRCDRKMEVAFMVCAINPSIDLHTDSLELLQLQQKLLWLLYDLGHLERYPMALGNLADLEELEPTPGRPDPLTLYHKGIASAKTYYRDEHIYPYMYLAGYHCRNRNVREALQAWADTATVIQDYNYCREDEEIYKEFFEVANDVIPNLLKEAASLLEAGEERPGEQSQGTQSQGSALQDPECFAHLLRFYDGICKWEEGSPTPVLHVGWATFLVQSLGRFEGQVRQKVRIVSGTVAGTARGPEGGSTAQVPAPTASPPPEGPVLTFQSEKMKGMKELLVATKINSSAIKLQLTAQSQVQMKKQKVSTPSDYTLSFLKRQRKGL

As for `Cc1c(C(=O)C2CCN(C(=O)[C@@H]3CCC(C)(C)N3)CC2)c2ccncc2n1-c1ccc(F)cc1C(=O)N(C(C)C)C(C)C` (single isomer, unassigned) [Compound 56-2], the “LATENCY (overall survival)” value in assay [1] is 161 days. Besides, the concentration for half-maximal inhibition (IC50) in assay [2] came to 42.9 µM; in assay [3], 0.043 µM. The “% REGRESSION AT DOSING END” value was 88% in assay [4] (30 mg/kg oral twice daily), 97% in assay [4] (100 mg/kg oral twice daily) and 99% in assay [4] (200 mg/kg oral twice daily). Moreover, the “% TUMOR REGROWTH AT STUDY END” value in assay [4] (30 mg/kg oral twice daily, monitored 6 weeks) was 100%; in assay [4] (100 mg/kg oral twice daily, monitored 6 weeks), 0%; in assay [4] (200 mg/kg oral twice daily, monitored 6 weeks), 0%. The “tumor regrowth (in words)” value in assay [4] (100 mg/kg and 200 mg/kg, monitored 6 weeks) is recorded as “no tumor regrowth”.

For `CCN(C(=O)c1cc(F)ccc1-n1c(C)c(C(=O)C2CCN(C(=O)[C@H]3NC[C@@H]4C[C@@H]43)CC2)c2ccncc21)C(C)C` (single isomer, unassigned) [Example 48-2], in assay [3], 0.013 µM corresponded to half-maximal inhibition (IC50). In other words, the double-digit nanomolar range.

Compound `CCN(C(=O)c1cc(F)ccc1-n1c(C)c(C(=O)C2CCN(C(=O)[C@@H]3CCC4(CC4)N3)CC2)c2ccncc21)C(C)C` (single isomer, unassigned) [Example 49-2] returned an IC50 in assay [3] of 0.029 µM.

Take `CCN(C(=O)c1cc(F)ccc1-n1c(C)c(C(=O)C2CCN(C(=O)[C@@H]3CCC(C)(C)N3)CC2)c2ccncc21)C(C)C` (single isomer, unassigned) [Example 50-2]: in assay [3], the IC50 amounted to 0.029 µM.

`Cc1c(C(=O)C2CCN(C(=O)[C@H]3NC[C@@H]4C[C@@H]43)CC2)c2ccncc2n1-c1ccc(F)cc1C(=O)N(CC(F)(F)F)C(C)C` (single isomer, unassigned) [Example 51-2] registered a half-maximal inhibitory concentration (IC50) in assay [3] of 0.022 µM. The IC50 values of the last two compounds are within 1.5-fold of each other.

In the case of `Cc1c(C(=O)[C@@H]2CCN(C(=O)[C@H]3NC[C@@H]4C[C@@H]43)[C@@H](C)C2)c2ccncc2n1-c1ccc(F)cc1C(=O)N(CC(F)(F)F)C(C)C` (single isomer, unassigned) [Example 53-3, 2-(3-((2R*,4S*)-1-((1S,2S,5R)-3-Azabicyclo[3.1.0]hexane-2-carbonyl)-2-methylpiperidine-4-carbonyl)-2-methyl-1H-pyrrolo[2,3-c]pyridin-1-yl)-5-fluoro-N-isopropyl-N-(2,2,2-trifluoroethyl)benzamide], the half-inhibitory concentration (IC50) in assay [3] worked out at 0.014 µM. Compared with the last compound, the IC50 is about 1.6-fold lower.

Compound `Cc1c(C(=O)C2CCN(C(=O)[C@H]3NC[C@@H]4C[C@@H]43)CC2)c2ccncc2n1-c1ccc(F)cc1C(=O)N(C(C)C)C(C)C` (single isomer, unassigned) [Example 55-2] registered a 50% inhibitory concentration (IC50) in assay [3] of 0.009 µM.

Turning to `Cc1c(C(=O)C2CCN(C(=O)[C@@H]3CCC4(CC4)N3)CC2)c2ccncc2n1-c1ccc(F)cc1C(=O)N1[C@H](C)COC[C@H]1C` (single isomer, unassigned) [Example 58-2], the IC50 in assay [2] was determined as 111 µM; in assay [3] it was 0.03 µM.

In assay [2], `CC(C)c1ncccc1-c1cc(F)ccc1-n1cc(C(=O)C2CN(C(=O)[C@H]3N[C@@H]4CC[C@H]3C4)C2)c2ccncc21` [Example 10, (1-((1R,3S,4S)-2-Azabicyclo[2.2.1]heptane-3-carbonyl)azetidin-3-yl)(1-(4-fluoro-2-(2-isopropylpyridin-3-yl)phenyl)-1H-pyrrolo[2,3-c]pyridin-3-yl)methanone] had an IC50 of 33.8 µM.

As for `CC(C)N(C(=O)c1cc(F)ccc1-n1cc(C(=O)C2CCN(C(=O)[C@H]3NC4CCC3CC4)CC2)c2ccncc21)C(C)C` [Example 20, (S)-2-(3-(1-(2-Azabicyclo[2.2.2]octane-3-carbonyl)piperidine-4-carbonyl)-1H-pyrrolo[2,3-c]pyridin-1-yl)-5-fluoro-N,N-diisopropylbenzamide], the IC50 in assay [3] worked out at 0.022 µM.

In assay [3], `CCN(C(=O)c1cc(F)ccc1-n1cc(C(=O)C2CCN(C(=O)[C@H]3NC[C@@H]4C[C@@H]43)CC2)c2ccncc21)C(C)C` [Example 28, 2-(3-(1-((1S,2S,5R)-3-Azabicyclo[3.1.0]hexane-2-carbonyl)piperidine-4-carbonyl)-1H-pyrrolo[2,3-c]pyridin-1-yl)-N-ethyl-5-fluoro-N-isopropylbenzamide] displayed an IC50 of 0.017 µM.

In assay [3], `C[C@@H]1COC[C@@H](C)N1C(=O)c1cc(F)ccc1-n1cc(C(=O)C2CCN(C(=O)[C@H]3N[C@@H]4CC[C@H]3C4)CC2)c2ccncc21` [Example 34, (1-((1R,3S,4S)-2-Azabicyclo[2.2.1]heptane-3-carbonyl)piperidin-4-yl)(1-(2-((3R,5R)-3,5-dimethylmorpholine-4-carbonyl)-4-fluorophenyl)-1H-pyrrolo[2,3-c]pyridin-3-yl)methanone] yielded an IC50 of 0.029 µM.

One may read the IC50 as the concentration needed to halve the response being measured.
